Measurements published in patent US12083168B2, “Treatment and detection of inherited neuropathies and associated disorders” (University of Miami, priority 2019, dated 2024).

Key:
[1] = system: aldose reductase (AR) (AKR1B1 gene); assay: Knock-down of aldose reductase by antisense oligonucleotide, Western blot normalized to β-tubulin; format: cell-based, Homo sapiens; conditions: SORD patient fibroblast and control fibroblasts; scrambled ASO (AR-S 1A) as control
Method: FIGS. 15A-15D. […] This was carried out in a SORD patient fibroblast and control fibroblasts and normalized to β-tubulin and measured via Western blot (FIGS. 15C-15D).
Fibroblasts were lysed in RIPA buffer (ThermoFisher) containing protease inhibitor (Roche) and sonicated for 5 minutes with the Bioruptor sonication device (Diagenode). Cell lysates were centrifuged at 13,000×g for 10 minutes at 4° C., and the supernatant was collected for protein quantification (Pierce BCA Protein Assay Kit). 30 μg of protein sample was mixed with Bolt LDS Sample Buffer and Sample Reducing Agent (ThermoFisher) and heated at 90° C. for 5 min. Samples were loaded on Bolt 4-12% Bis-Tris Plus mini-gel followed by transfer into a nitrocellulose membrane (Bio-Rad). Membrane was blocked with 5% non-fat milk and incubated with anti-SORD (ab189248, Abcam) antibody for 2 hours, washed with TBS containing 0.01% Tween 20 (Bio-Rad) and incubated with a secondary anti-rabbit antibody (Cell Signaling). Membrane was subsequently incubated with GAPDH primary antibody (Santa Cruz) and secondary anti-mouse antibody (Cell Signaling). Chemoluminescence detection was performed with the SuperSignal West Pico PLUS Chemiluminescent Substrate and imaged with the FluorChem E (ProteinSimple).

[2] = system: patient fibroblasts lacking functional SORD; assay: Intracellular sorbitol level in patient fibroblasts (UPLC-MS/MS, normalised to protein content); format: cell-based, human; conditions: 72 hrs, Epalrestat 100 μM, Ranirestat 10 μM, vs DMSO
Method: Asynchronous cell cultures were grown to approximately 80% confluency and treated with epalrestat (100 μM), ranirestat (10 μM) or DMSO for 72 hours. Media containing the drugs or DMSO were changed every 24 hours.
Sorbitol determination in human fibroblast lysates was performed in ultra-performance liquid chromatography-tandem mass spectrometry (UPLC-MS/MS) (Waters Acquity UPLC & TQD mass spectrometer—Waters, Milford, MA, USA). […] Lysate samples underwent protein precipitation with Acetonitrile (1:5), ten-time dilution with Acetonitrile-water (50/50) and clean up on Oasis HLB cartridges (10 mg/1 ml), before injection in UPLC (3 μL). UPLC conditions: column, BEH Amide 1.7 μm (2.1×100 mm) at 88° C., eluent A, Acetonitrile 90%-water 5%-Isopropanol 5%, eluent B, Acetonitrile 80%-water 20%, gradient elution 0 min., 100% A, 3.6 min. 100% B, flow rate, 0.45 ml/min. The retention time of sorbitol was 2.7 min.
The effect of two commercially available aldose reductase inhibitors (ARI), Epalrestat and Ranirestat, were tested on intracellular sorbitol accumulation in patient fibroblasts lacking functional SORD. Patient and control fibroblasts were grown for 72 hrs in the presence or absence of Epalrestat (100 μM) or Ranirestat (10 μM) and intracellular sorbitol levels were measured thereafter.

[3] = system: Sodh2MB01265/MB01265 flies; assay: Locomotor activity (negative geotaxis assay), Sodh2 mutant flies; format: in vivo, Drosophila melanogaster; conditions: 80 μM in food, vs yw control flies
Method: […] Equal amount of DMSO was mixed into the fly food as control. The vials were dried at room temperature for 12 h before feeding.
For lifespan assay, 100 newly enclosed female flies of each group were collected and placed in vials of 20 individuals. Flies were transferred into new vials every 2 days and the number of dead flies was counted. Survival data was plotted using Kaplan-Meier plot and compared between groups using log-rank test. For negative geotaxis behavior assay, 10 age-matched female flies were placed in a vial marked with a black line drawn horizontally 8 cm above the bottom. Flies were given 60 min to fully recover from CO2 anesthesia, and were gently tapped onto the bottom and given 10 s to climb. Flies that crossed the 8 cm line were counted. For each vial, this assay was repeated 10 times, and 10 independent vials of each group (a total 100 flies per group) were tested. To minimize observer-expectancy bias, this assay was performed with the examiner masked to the group assignment.

[4] = system: Sodh2MB01265/MB01265 Drosophila; assay: Sorbitol level in fly brain/head homogenates (UPLC); format: in vivo, Drosophila melanogaster; conditions: Sodh2MB01265/MB01265 flies at 10 DAE; fed from 2 DAE, 80 μM / 80 μg/ml in food
Method: (FIG. 4B) Sorbitol level as measured by UPLC from brain/head homogenates and normalised to protein concentration from wild-type (yw, empty circle dots), Sodh2^MB01265/MB01265 (full circle dots) and neuron-specific knock-down of Sodh1 and Sodh1 by RNAi (square dots) Drosophilae at 10 days after eggs enclosure. Sodh2 Mimic and Sodh1 and Soh2 RNAi Drosophilae were fed with either 80 μM Epalrestat, 80 μM Ranirestat or DMSO. The graphs show the mean±s.d. A two-tailed t-test was performed to compare sorbitol level. Statistical significance is indicated as *, ** or *** if P-value <0.05, <0.01 or <0.001, respectively, unless otherwise specified.
Lysate samples underwent protein precipitation with Acetonitrile (1:5), ten-time dilution with Acetonitrile-water (50/50) and clean up on Oasis HLB cartridges (10 mg/1 ml), before injection in UPLC (3 μL). UPLC conditions: column, BEH Amide 1.7 μm (2.1×100 mm) at 88° C., eluent A, Acetonitrile 90%-water 5%-Isopropanol 5%, eluent B, Acetonitrile 80%-water 20%, gradient elution 0 min., 100% A, 3.6 min. 100% B, flow rate, 0.45 ml/min. The retention time of sorbitol was 2.7 min. MS/MS conditions: interface, Electrospray interface in negative ion mode, Multiple Reaction Monitoring acquisition, m/z 180.9→88.9 (CV 24, CE 15).
Unless specified, all flies were kept on cornmeal-molasses-yeast medium at 25° C., 65% humidity, with 12 h light/12 h dark cycles. […]

[5] = system: flies with neuronal specific knockdown of both Sodh1 and Sodh2; assay: Locomotor activity (negative geotaxis assay), Sodh1 and Sodh2 double knockdown flies; format: in vivo, Drosophila melanogaster; conditions: neuronal specific knockdown of Sodh1 and Sodh2, 80 μM in food, vs yw control flies
Method: FIG. 7. Treatment with aldose reductase inhibitors Epalrestat and Ranirestat restore locomotor function in Sodh1 and Sodh2 double knockdown flies. Locomotor activity of control flies (yw) feeding with DMSO (dots, first data point from the left for each DAE point indicated), or flies with neuronal specific knockdown of Sodh1 and Sodh2 feeding with DMSO (squares, second data point from the left for each DAE point indicated), 80 μM Epalrestat (squares, third data point from the left for each DAE point indicated), or 80 μM Ranirestat (squares, forth data point from the left for each DAE point indicated). n=10 in each group. Data are presented as mean±s.d. Statistical analysis was performed using Two-Way ANOVA followed by post-hoc Tukey's multiple comparison test. ***P<0.001, ****P<0.0001. […] Equal amount of DMSO was mixed into the fly food as control. The vials were dried at room temperature for 12 h before feeding. For lifespan assay, 100 newly enclosed female flies of each group were collected and placed in vials of 20 individuals. Flies were transferred into new vials every 2 days and the number of dead flies was counted. Survival data was plotted using Kaplan-Meier plot and compared between groups using log-rank test. […] Flies that crossed the 8 cm line were counted. […]

[6] = system: Sodh2MB01265/MB01265 mutant flies; assay: Age-dependent synaptic degeneration in the lamina (vacuoles, BRP immunostaining, confocal microscopy); format: in vivo, Drosophila melanogaster
Method: FIGS. 4A-G. Treatment with aldose reductase inhibitors Epalrestat and Ranirestat decrease sorbitol level and restore function. (FIG. 4A) Intracellular sorbitol level as measured by UPLC and normalised to protein content in fibroblasts from healthy controls (n=5, circle dots) and patients carrying biallelic nonsense mutations in SORD (n=5, square dots) after three days of treatment with Epalrestat 100 μM, Ranirestat 10 μM or DMSO. (FIG. 4B) Sorbitol level as measured by UPLC from brain/head homogenates and normalised to protein concentration from wild-type (yw, empty circle dots), Sodh2^MB01265/MB01265 (full circle dots) and neuron-specific knock-down of Sodh1 and […] (square dots) Drosophilae at 10 days after eggs enclosure. Sodh2 Mimic and Sodh1 and Soh2 RNAi Drosophilae were fed with either 80 μM Epalrestat, 80 μM Ranirestat or DMSO. The graphs show the mean±s.d. A two-tailed t-test was performed to compare sorbitol level. Statistical significance is indicated as *, ** or *** if P-value <0.05, <0.01 or <0.001, respectively, unless otherwise specified. All experiments were repeated independently twice with similar results. (FIG. 4C) Locomotor activity of control flies (yw) feeding with DMSO, Sodh2^MB01265/MB01265 flies feeding with DMSO, 80 μM Epalrestat, or 80 μM Ranirestat (n=10 in each group). Data are presented as mean±s.d. Statistical analysis was performed using Two-Way ANOVA followed by post-hoc Tukey's multiple comparison test. *P<0.05, ***P<0.001 (FIGS. 4D-4F) Laminae of Sodh2^MB01265/MB01265 homozygous flies at 10 DAE and 40 DAE fed with DMSO (FIG. 4D), 80 μM Epalrestat (FIG. 4E), or 80 μM Ranirestat (FIG. 4F). Arrowheads indicate the lamina vacuoles. Boxes indicate higher magnification areas of the lamina. The intensity of BRP is indicated. […] (FIG. 4G) Quantification of the vacuole number, size, and BRP intensity of (FIGS. 4D-4F). n=3. […]
Brain dissection and staining were carried out as previously described (Brazill et al., J Vis Exp. 2018; (138)). […] Images were processed and analyzed using FluoView 10-ASW (Olympus).

[7] = Sodh2MB01265/MB01265 flies, at both 10 and 40 DAE, 80 μM in food

Compound	aldose reductase protein level (knock-down) [1]	intracellular sorbitol level [2]	locomotor activity [3]	sorbitol level in fly heads [4]	locomotor activity [5]	localization of synaptic cytomatrix protein BRP [6, 7]	number of lamina vacuoles [6, 7]	age-dependent synaptic defects ([6]; Sodh2MB01265/MB01265 mutant flies, drug feeding)
AR 1A: antisense oligonucleotide (ASO) targeting aldose reductase (AKR1B1), SEQ ID NO: 22, GTTTAAGATCATCTCCACCT, modified backbone (modified backbone, type not given here)	Significant knock-down	–	–	–	–	–	–	–
O=C1C[C@@]2(C(=O)N1)C(=O)N(Cc1ccc(Br)cc1F)C(=O)c1cccn12 [Ranirestat]	–	significant reduction of sorbitol to a level comparable to controls	rescued to the levels of yw control flies	significant reduction of sorbitol level	rescued to the levels of yw control flies	restored the localization of synaptic cytomatrix protein BRP	reduced the number of vacuoles	restored the age-dependent synaptic defects
